Assays:
[1] = tested on: tight junctions (TJs) of the airway epithelium; conditions: rat trachea lumen, 10 mM EDTA for 30 min, vs native
Description: Quantification of airway epithelium integrity via bioimpedance measurement: To investigate the biophysical integrity of the airway epithelium nondestructively (FIG. 16), we created a platform that allowed quantification of the bioelectrical impedance (bioimpedance) of the airway tissue (FIG. 16A-B). This platform utilizes four electrode probes to measure the electrical properties of the tissue (FIG. 16C). During measurements, alternating electrical current (AC) at various frequencies (20 Hz-135 kHz) and 100 μA of magnitude were injected into the tissue using two current carrying electrodes (CC1 and CC2), while two voltage pick-up electrodes (PU1 and PU2) measured the potential distribution (FIG. 16C). The data were analyzed using the Cole model that describes the biological tissue as a combination of a resistor (R) and a constant phase element (CPE) (FIG. 16D, i).

human lungs = experiment: Xenogeneic cross-circulation support of human lungs with porcine host; conditions: added to the immunosuppressive therapy, human lungs on xenogeneic cross-circulation
Description: Preliminary Results: We support human lungs utilizing EVLP and a xenogeneic cross-circulation platform. […] With the addition of cobra venom factor to the immunosuppressive therapy, the risk of acute rejection was mitigated.

Compound | bioimpedance of treated airway tissue [1] | risk of acute rejection (human lungs)
O=C(O)CN(CCN(CC(=O)O)CC(=O)O)CC(=O)O [EDTA, ethylenediaminetetraacetic acid] | reduced impedance | –
cobra venom factor | – | mitigated
